# Tests used:
# Conditions in all cases: in vivo
# CYP2c11 = biological target: T1, CYP2c11 (Rattus norvegicus, UniProt P08683); set-up: from tissue; host or cells: live male Sprague-Dawley rats (whole animal, mainly liver)
# T1 sequence (P08683 1-500): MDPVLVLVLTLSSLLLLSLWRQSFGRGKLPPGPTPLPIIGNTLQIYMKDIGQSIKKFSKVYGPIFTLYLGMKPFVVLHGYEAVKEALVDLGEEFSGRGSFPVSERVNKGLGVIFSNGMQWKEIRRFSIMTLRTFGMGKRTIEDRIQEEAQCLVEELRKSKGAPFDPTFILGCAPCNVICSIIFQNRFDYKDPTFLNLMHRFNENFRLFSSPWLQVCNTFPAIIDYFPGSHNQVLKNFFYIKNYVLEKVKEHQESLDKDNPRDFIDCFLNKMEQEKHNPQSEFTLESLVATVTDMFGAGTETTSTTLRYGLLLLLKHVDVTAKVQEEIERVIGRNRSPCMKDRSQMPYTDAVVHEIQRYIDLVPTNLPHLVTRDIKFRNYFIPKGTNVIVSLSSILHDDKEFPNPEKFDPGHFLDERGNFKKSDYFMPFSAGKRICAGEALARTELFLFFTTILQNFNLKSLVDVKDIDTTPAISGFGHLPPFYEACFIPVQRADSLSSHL
# CYP2c13 = biological target: T2, CYP2c13 (Rattus norvegicus, UniProt P20814); set-up: from tissue; host or cells: live male Sprague-Dawley rats (whole animal, mainly liver)
# T2 sequence (P20814 1-490): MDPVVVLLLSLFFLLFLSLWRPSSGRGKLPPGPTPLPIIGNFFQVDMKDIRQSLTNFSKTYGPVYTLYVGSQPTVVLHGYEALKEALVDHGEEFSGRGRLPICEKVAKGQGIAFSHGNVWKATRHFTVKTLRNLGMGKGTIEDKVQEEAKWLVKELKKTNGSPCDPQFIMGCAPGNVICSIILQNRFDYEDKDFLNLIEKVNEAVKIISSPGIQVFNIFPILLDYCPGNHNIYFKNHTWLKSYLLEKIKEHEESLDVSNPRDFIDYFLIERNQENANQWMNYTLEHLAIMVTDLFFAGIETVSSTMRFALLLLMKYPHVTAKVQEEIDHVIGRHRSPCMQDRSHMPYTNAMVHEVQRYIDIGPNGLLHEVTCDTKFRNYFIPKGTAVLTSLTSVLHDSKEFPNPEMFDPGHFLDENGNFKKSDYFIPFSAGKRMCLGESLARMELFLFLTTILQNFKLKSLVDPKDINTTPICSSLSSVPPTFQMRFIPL
# CYP3a1 = biological target: T3, CYP3a1 (Rattus norvegicus, UniProt P04800); set-up: from tissue; host or cells: live male Sprague-Dawley rats (whole animal, liver and intestine)
# T3 sequence (P04800 1-504): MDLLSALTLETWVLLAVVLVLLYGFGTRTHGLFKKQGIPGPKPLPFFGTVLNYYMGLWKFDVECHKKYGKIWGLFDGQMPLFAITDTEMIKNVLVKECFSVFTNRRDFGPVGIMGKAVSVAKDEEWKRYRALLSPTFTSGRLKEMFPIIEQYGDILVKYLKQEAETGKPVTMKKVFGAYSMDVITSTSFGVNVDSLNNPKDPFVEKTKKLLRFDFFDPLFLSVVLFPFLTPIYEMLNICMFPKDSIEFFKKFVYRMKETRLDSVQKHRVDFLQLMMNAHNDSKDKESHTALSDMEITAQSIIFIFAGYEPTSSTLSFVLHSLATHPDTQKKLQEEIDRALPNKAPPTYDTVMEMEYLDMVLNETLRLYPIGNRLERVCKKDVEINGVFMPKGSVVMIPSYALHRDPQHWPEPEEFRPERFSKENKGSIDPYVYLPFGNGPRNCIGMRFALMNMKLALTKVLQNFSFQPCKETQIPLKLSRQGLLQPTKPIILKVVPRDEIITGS
# CYP1a2 = biological target: T4, CYP1a2 (Rattus norvegicus, UniProt P04799); set-up: from tissue; host or cells: live male Sprague-Dawley rats (whole animal, mainly liver)
# T4 sequence (P04799 1-513): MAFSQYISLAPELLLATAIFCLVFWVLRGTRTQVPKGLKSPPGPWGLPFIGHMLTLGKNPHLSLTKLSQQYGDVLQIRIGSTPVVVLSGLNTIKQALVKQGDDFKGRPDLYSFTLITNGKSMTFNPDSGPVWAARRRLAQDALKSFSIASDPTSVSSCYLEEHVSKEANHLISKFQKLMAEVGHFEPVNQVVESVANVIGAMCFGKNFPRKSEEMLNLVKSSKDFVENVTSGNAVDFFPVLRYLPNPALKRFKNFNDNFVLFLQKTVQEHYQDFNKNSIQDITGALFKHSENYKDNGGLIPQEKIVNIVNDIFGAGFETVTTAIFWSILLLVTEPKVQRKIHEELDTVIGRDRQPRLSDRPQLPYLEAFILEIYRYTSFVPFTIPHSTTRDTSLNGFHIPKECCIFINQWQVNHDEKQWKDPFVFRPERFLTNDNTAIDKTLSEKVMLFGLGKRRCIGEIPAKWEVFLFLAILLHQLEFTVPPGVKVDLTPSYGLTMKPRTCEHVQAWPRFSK
# CYP2e1 = CYP2e1 (Rattus norvegicus, UniProt P05182)
# CYP2e1, sequence (P05182 whole entry): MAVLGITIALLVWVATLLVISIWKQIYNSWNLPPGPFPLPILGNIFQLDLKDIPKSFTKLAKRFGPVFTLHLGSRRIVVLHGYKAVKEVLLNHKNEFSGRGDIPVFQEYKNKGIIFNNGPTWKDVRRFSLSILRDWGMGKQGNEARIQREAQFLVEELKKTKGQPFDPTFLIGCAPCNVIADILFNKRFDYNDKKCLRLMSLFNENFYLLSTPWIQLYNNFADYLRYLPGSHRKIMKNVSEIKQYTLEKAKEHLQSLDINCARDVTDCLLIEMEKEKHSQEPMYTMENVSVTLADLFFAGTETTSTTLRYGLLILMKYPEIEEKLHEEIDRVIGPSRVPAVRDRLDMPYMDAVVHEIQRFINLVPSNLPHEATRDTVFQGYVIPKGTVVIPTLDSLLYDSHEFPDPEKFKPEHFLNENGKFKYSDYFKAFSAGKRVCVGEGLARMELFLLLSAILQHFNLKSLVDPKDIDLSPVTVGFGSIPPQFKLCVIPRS
# Experimental: The effect of the Zhicaowu–Hezi combination on CYP450 enzymes in rats was evaluated by examining the pharmacokinetics of theophylline (CYP1a2), metoprolol (CYP2d2), bupropion (CYP2b1), omeprazole (CYP2c13), chlorzoxazone (CYP2e1), testosterone (CYP3a1), and diclofenac (CYP2c11).
# The collected blood was placed in sodium heparin-treated centrifuge tubes and centrifuged at 4°C for 10 min at 3,000 RPM. […] After 10 min of sedimentation, the supernatant was extracted through a 0.22-μm microporous membrane, 20 μL of which was injected into HPLC. The pharmacokinetic parameters of each probe drug were calculated using the non-atrial compartment model in Drug and Statistics software (DAS, 3.0; Shanghai, China).
smiles,measurement,setting,value
"CCC1(c2ccccc2)C(=O)NC(=O)NC1=O [P, phenobarbital sodium]",diclofenac AUC(0-t),CYP2c11,3.978 ± 0.385 µg·h/mL
same,diclofenac AUC(0-∞),CYP2c11,4.057 ± 0.343 µg·h/mL
same,diclofenac CLz/F,CYP2c11,"3,071.310 ± 519.261 mL/h/kg"
same,diclofenac Cmax,CYP2c11,0.735 ± 0.068 µg/mL
same,diclofenac t1/2 z,CYP2c11,3.342 ± 0.425 h
same,omeprazole AUC(0-t),CYP2c13,3.040 ± 0.177 µg·h/mL
same,omeprazole AUC(0-∞),CYP2c13,3.187 ± 0.239 µg·h/mL
same,omeprazole CLz/F,CYP2c13,"3,028.688 ± 253.193 mL/h/kg"
same,omeprazole Cmax,CYP2c13,0.535 ± 0.063 µg/mL
same,omeprazole t1/2 z,CYP2c13,2.761 ± 0.227 h
same,testosterone AUC(0-t),CYP3a1,0.756 ± 0.048 µg·h/mL
same,testosterone AUC(0-∞),CYP3a1,0.907 ± 0.093 µg·h/mL
same,testosterone CLz/F,CYP3a1,"6,479.436 ± 351.908 mL/h/kg"
same,testosterone Cmax,CYP3a1,0.107 ± 0.015 µg/mL
same,testosterone t1/2 z,CYP3a1,7.394 ± 0.958 h
same,theophylline AUC(0-t),CYP1a2,12.257 ± 0.742 µg·h/mL
same,theophylline AUC(0-∞),CYP1a2,13.565 ± 0.801 µg·h/mL
same,theophylline CLz/F,CYP1a2,"7,744.326 ± 56.253 mL/h/kg"
same,theophylline Cmax,CYP1a2,1.138 ± 0.201 µg/mL
same,theophylline t1/2 z,CYP1a2,2.509 ± 0.436 h
same,chlorzoxazone AUC(0-t),CYP2e1,32.754 ± 4.037 µg·h/mL
same,chlorzoxazone AUC(0-∞),CYP2e1,47.632 ± 6.051 µg·h/mL
same,chlorzoxazone CLz/F,CYP2e1,0.804366 ± 0.066616 L/h/kg
same,chlorzoxazone Cmax,CYP2e1,3.543 ± 0.431 µg/mL
same,chlorzoxazone t1/2 z,CYP2e1,13.368 ± 1.308 h
